Several values for one entry are separate records, joined by “and”; a condition that tells them apart may be missing. Equal entries are not always repeated. One block for each compound: values may come before it.
Assay: solvent given as SMILES
[1] = in c1ccc2c(c1)c1ccccc1n2-c1ccc(-c2ccc(-n3c4ccccc4c4ccccc43)cc2)cc1

SMILES: CN(C)c1ccc(-c2c(/C=C3/C=Cc4ccccc4N3C)c(=O)c2=O)cc1
fluorescence lifetime (in C1CCCCC1): 1.54 ns
fluorescence lifetime (in Cc1ccccc1): 2.48 ns
fluorescence lifetime (in ClCCl): 0.15 ns

SMILES: N#Cc1cc(C#N)cc(-n2c3ccccc3c3cc(-c4ccc5c(c4)c4ccccc4n5-c4cc(C#N)cc(C#N)c4)ccc32)c1
fluorescence lifetime (in Cc1ccccc1): 24 ns

SMILES: CCCCCCCCN1c2ccc(C#Cc3ccc(OC)cc3)cc2Sc2cc(C=O)ccc21
fluorescence lifetime (in C1CCOC1): 7.1 ns
fluorescence lifetime (in CC#N): 6.03 ns
fluorescence lifetime (in CCCCCC): 6.46 ns
fluorescence lifetime (in CO): 5.08 ns
fluorescence lifetime (in CS(C)=O): 6.6 ns
fluorescence lifetime (in Cc1ccccc1): 7.42 ns
fluorescence lifetime (in ClC(Cl)Cl): 5.65 ns

SMILES: CCCCc1cc(-c2cccc(COC)c2)oc1-c1cccc(-c2cc(CCCC)c(-c3cccc(-c4oc(-c5cccc(-c6oc(-c7cccc(COC)c7)cc6CCCC)c5)cc4CCCC)c3)o2)c1
fluorescence lifetime (in ClC(Cl)Cl): 1.35 ns

SMILES: Cc1ccc2cc(C)ccc2c1
fluorescence lifetime (in C1CCCCC1): 64 ns

SMILES: CCCCC(CC)Cn1c2cc(-c3ccc(N(c4ccccc4)c4ccccc4)cc3)c(C#N)cc2c2cc(C#N)c(-c3ccc(N(c4ccccc4)c4ccccc4)cc3)cc21 (stereo not given)
fluorescence lifetime (in ClCCl): 3.23 ns

SMILES: OB(O)c1ccc(-c2ccc(N(c3ccccc3)c3ccccc3)cc2)cc1
fluorescence lifetime (in C1CCCCC1): 1.59 ns
fluorescence lifetime (in C1CCOC1): 2.14 ns
fluorescence lifetime (in CC#N): 2.24 ns
fluorescence lifetime (in CCO): 2.39 ns
fluorescence lifetime (in CCOC(C)=O): 2.21 ns
fluorescence lifetime (in CCOCC): 1.69 ns
fluorescence lifetime (in CO): 2.97 ns

SMILES: O=P1(c2ccccc2)c2cc(N3c4ccccc4Oc4ccccc43)ccc2-c2ccc(N3c4ccccc4Oc4ccccc43)cc21
fluorescence lifetime [1]: 23.7 ns

SMILES: CCN(CC)c1ccc(C=Cc2nc3nc4ccccc4nc3s2)c(OC)c1
fluorescence lifetime (in CCCCCCC(C)O): 0.977 ns
fluorescence lifetime (in CCOC(C)=O): 0.96 ns
fluorescence lifetime (in CO): 0.04 ns
fluorescence lifetime (in CS(C)=O): 0.41 ns
fluorescence lifetime (in Cc1ccccc1): 0.27 ns
fluorescence lifetime (in ClC(Cl)Cl): 0.97 ns
fluorescence lifetime (in ClCCl): 1.29 ns

SMILES: N#Cc1c(-n2c3ccc(-c4ccccc4)cc3c3cc(-c4ccccc4)ccc32)c(-n2c3ccccc3c3ccccc32)c(-n2c3ccc(-c4ccccc4)cc3c3cc(-c4ccccc4)ccc32)c(-n2c3ccccc3c3ccccc32)c1-n1c2ccc(-c3ccccc3)cc2c2cc(-c3ccccc3)ccc21
fluorescence lifetime (in Cc1ccccc1): 5.2 ns

SMILES: N#CC1=c2cc3c4c(c2Oc2c1cc1c5c2CCCN5CCC1)CCC[N+]=4CCC3
fluorescence lifetime (in CCO): 1.93 ns

SMILES: CC1(C)c2ccccc2N(c2ccccc2)c2ccc(-c3ccc(-c4ccc5c(c4)C(C)(C)c4ccccc4N5c4ccccc4)c4nsnc34)cc21
fluorescence lifetime [1]: 7.2 ns

SMILES: Cc1ccccc1
fluorescence lifetime (in C1CCCCC1): 50 ns

SMILES: CC1(C)c2ccccc2N(c2ccc3c(c2)Oc2ccccc2S3(=O)=O)c2ccccc21
fluorescence lifetime (in O=P(c1ccccc1)(c1ccccc1)c1ccccc1Oc1ccccc1P(=O)(c1ccccc1)c1ccccc1): 29 ns

SMILES: CCc1ccc(/C=C/c2ccc(-c3nnc(-c4ccc(-c5cc6ccccc6s5)cc4)o3)cc2)cc1
fluorescence lifetime (in Cc1ccccc1): 0.56 ns
fluorescence lifetime (in ClC(Cl)Cl): 0.61 ns

SMILES: CC(C)c1cc(C(C)C)c(B2c3ccccc3Oc3cc(N4c5ccccc5C(C)(C)c5ccccc54)ccc32)c(C(C)C)c1
fluorescence lifetime (in Cc1ccccc1): 33 ns

SMILES: CCCCC(CC)CN1C(=O)C2=C(c3ccc(-c4ccc(C5=C6C(C)=CC(C)=[N+]6[B-](F)(F)n6c(C)cc(C)c65)cc4)s3)N(CC(CC)CCCC)C(=O)C2=C1c1cccs1 (stereo not given)
fluorescence lifetime (in Cc1ccccc1): 3.87 ns

SMILES: C(#Cc1ccccc1)C(C#Cc1ccccc1)=Cc1cccc(C=C(C#Cc2ccccc2)C#Cc2ccccc2)c1
fluorescence lifetime (in ClC(Cl)Cl): 0.3 ns

SMILES: CCCCCCCCOc1ccc2c3cccc4c(OCCCCCCCC)ccc(c5cccc1c52)c43
fluorescence lifetime (in C1CCOC1): 3.88 ns
fluorescence lifetime (in Cc1ccccc1): 3.65 ns
fluorescence lifetime (in ClC(Cl)(Cl)Cl): 3.82 ns
fluorescence lifetime (in ClC(Cl)Cl): 3.77 ns
fluorescence lifetime (in ClCCl): 4.17 ns
fluorescence lifetime (in c1ccncc1): 4.01 ns

SMILES: C#CCNC1=C2C=CC=[N+]2[B-](F)(F)n2cccc21
fluorescence lifetime (in C1CCCCC1): 6.36 ns and 5.34 ns
fluorescence lifetime (in CC(C)=O): 4.92 ns
fluorescence lifetime (in CCCCO): 6.02 ns
fluorescence lifetime (in CCCO): 5.16 ns
fluorescence lifetime (in CCO): 4.14 ns and 3.81 ns
fluorescence lifetime (in CCOC(C)=O): 5.13 ns
fluorescence lifetime (in CN(C)C=O): 2.98 ns
fluorescence lifetime (in CO): 3.22 ns
fluorescence lifetime (in CS(C)=O): 1.73 ns
fluorescence lifetime (in Cc1ccccc1): 6.56 ns
fluorescence lifetime (in ClC(Cl)Cl): 5.29 ns
fluorescence lifetime (in OCC(F)(F)F): 6.34 ns
fluorescence lifetime (in c1ccccc1): 6.28 ns

SMILES: Cc1c(C(=O)c2ccc3c4cccc5cccc(c6cccc2c63)c54)c2ccc3cccc4c5cccc6ccc1c(c65)c2c34
fluorescence lifetime (in ClCCl): 1.1 ns

SMILES: N#Cc1cc(-n2c3ccccc3c3ccccc32)c(-n2c3ccccc3c3ccccc32)cc1C#N
fluorescence lifetime (in Cc1ccccc1): 28.5 ns

SMILES: Cc1ccccc1[B-]1(c2ccccc2C)n2nc(C(F)(F)F)cc2-c2c3ccccc3cc[n+]21
fluorescence lifetime (in C1CCCCC1): 0.525 ns
fluorescence lifetime (in Cc1ccccc1): 0.425 ns
fluorescence lifetime (in ClCCl): 0.938 ns

SMILES: CC(C)(C)c1cc2cc(N(c3ccccc3)c3ccccc3)c3cc(C(C)(C)C)cc4cc(N(c5ccccc5)c5ccccc5)c(c1)c2c43
fluorescence lifetime (in CCCCCC): 4.6 ns

SMILES: c1ccc2c(c1)CCc1ccccc1N2c1c2ccccc2cc2ccccc12
fluorescence lifetime (in Cc1ccccc1): 41 ns

Other lines, results leading:

fluorescence lifetime (in CC#N): 1.3 ns
SMILES: Fc1cccc(-[c+]2c3ccccc3sc3ccccc32)c1

fluorescence lifetime (in CC#N): 2.46 ns
fluorescence lifetime (in CCO): 2.96 ns
fluorescence lifetime (in CN(C)C=O): 2.84 ns
fluorescence lifetime (in O): 1.49 ns
SMILES: CCN(CC)c1ccc2c(-c3ccc(S(=O)(=O)[O-])cc3S(=O)(=O)[O-])c3ccc(=[N+](CC)CC)cc-3oc2c1

fluorescence lifetime (in ClC(Cl)Cl): 2.5 ns
SMILES: N#CC(C#N)=Cc1ccc(-c2ccc(N(c3ccccc3)c3ccccc3)cc2)s1

fluorescence lifetime (in ClCCl): 1.91 ns
SMILES: CCCCn1c2ccc(C#N)cc2c2cc(C#N)cc(-c3ccc(N(c4ccccc4)c4ccccc4)cc3)c21

fluorescence lifetime (in C1CCOC1): 2.9 ns
fluorescence lifetime (in C1COCCO1): 2.9 ns
fluorescence lifetime (in CC#N): 0.9 ns
fluorescence lifetime (in CS(C)=O): 0.4 ns
SMILES: N#Cc1cc2ccccc2[nH]1

fluorescence lifetime (in CC#N): 4.18 ns
fluorescence lifetime (in CC(C)O): 3.96 ns
fluorescence lifetime (in CCCCCCCCO): 3.83 ns
fluorescence lifetime (in CCCCCCO): 3.88 ns
fluorescence lifetime (in CCCCO): 3.89 ns
fluorescence lifetime (in CCCO): 3.95 ns
fluorescence lifetime (in CCO): 3.96 ns
fluorescence lifetime (in CN(C)C=O): 3.86 ns
fluorescence lifetime (in CO): 3.7 ns
fluorescence lifetime (in O): 4.22 ns
fluorescence lifetime (in [2H]O[2H]): 4.36 ns
SMILES: CCNc1cc2oc3c/c(=[NH+]\CC)c(C)cc-3c(-c3ccccc3C(=O)OCC)c2cc1C

fluorescence lifetime (in CCO): 6.4 ns
fluorescence lifetime (in ClCCl): 7.2 ns
SMILES: c1ccc2c(-c3cncnc3)c3ccccc3c(-c3cncnc3)c2c1

fluorescence lifetime (in ClCCl): 2.8 ns
SMILES: CCOC(=O)c1ccc(C2=Cc3cc4ccccc4cc3P2(=O)c2ccccc2)cc1 (stereo not given)

fluorescence lifetime (in C1CCOC1): 4.8 ns
SMILES: COc1ccc(-c2cnc3nn4ccccc4c3c2)cc1

fluorescence lifetime (in C1CCOC1): 3.22 ns
fluorescence lifetime (in C1COCCO1): 0.48 ns
fluorescence lifetime (in CC#N): 0.59 ns
fluorescence lifetime (in CC(C)O): 4.56 ns
fluorescence lifetime (in CCCCO): 4.01 ns
fluorescence lifetime (in CCCO): 4.68 ns
fluorescence lifetime (in CCOC(C)=O): 0.94 ns
fluorescence lifetime (in CN(C)C=O): 3.37 ns
fluorescence lifetime (in CO): 4.45 ns
fluorescence lifetime (in CS(C)=O): 0.8 ns
fluorescence lifetime (in ClC(Cl)Cl): 3.67 ns
fluorescence lifetime (in O): 5.52 ns
SMILES: Cc1cc(=O)c2ccc(N)cc2o1

fluorescence lifetime (in C1CCCCC1): 1.8 ns
fluorescence lifetime (in CC#N): 15.7 ns
fluorescence lifetime (in CCO): 0.8 ns
SMILES: COc1ccc2c(c1)-c1cc(OC)ccc1C2=O

fluorescence lifetime (in ClC(Cl)Cl): 7.8 ns
SMILES: CCCCCCCCCCCCOc1cc2c3c(ccc4c5c(SCCCCCCCCCCCC)cc6c7c(ccc(c1c34)c75)C(=O)N(C1CCCCC1)C6=O)C(=O)N(C1CCCCC1)C2=O

fluorescence lifetime (in C1CCOC1): 6.42 ns
fluorescence lifetime (in CCCCCC): 5.78 ns
SMILES: COc1ccccc1C1=C2C(C)=CC(C)=[N+]2[B-](F)(F)n2c(C)cc(C)c21

fluorescence lifetime (in ClC(Cl)Cl): 3 ns
SMILES: Cc1cc(C)c(C2=C3C=CC=[N+]3[B-]3(c4ccccc4)Oc4cc(O)cc5c6ccc(C)cc6c6cc2n3c6c45)c(C)c1 (stereo not given)

fluorescence lifetime (in ClC(Cl)Cl): 3.94 ns
SMILES: CC1=CC(C)=[N+]2C1=C(c1ccc(I)cc1)c1c(C)cc(C)n1[B-]2(OCc1ccccc1)OCc1ccccc1

fluorescence lifetime (in CCO): 1.66 ns
SMILES: CC(=O)N(Cc1ccccn1)c1c2ccccc2c2c3c(cccc13)C(=O)N(Cc1ccccn1)C2=O

fluorescence lifetime (in CC#N): 6.5 ns
fluorescence lifetime (in CCCCCC): 5.9 ns
SMILES: C/C=C/c1cccc(OC)c1

fluorescence lifetime (in CCO): 13.4 ns
SMILES: CCOC(=O)CCCCCn1c2ccc(OC)cc2c(=O)c2cc3c(cc21)c(=O)c1cc(OC)ccc1n3CCCCCC(=O)OCC

fluorescence lifetime (in ClCCl): 7.3 ns
SMILES: OCCSc1cccc2[n+]1[B-](F)(F)n1c(c3cccc4cccc1c43)=N2

fluorescence lifetime (in CC#N): 1.94 ns
fluorescence lifetime (in CCCCCC): 5 ns
fluorescence lifetime (in CO): 1.79 ns
fluorescence lifetime (in ClC(Cl)Cl): 2.54 ns
SMILES: c1ccc2c(c1)cc(-c1cc(-c3nccs3)nc(-c3nccs3)c1)c1ccccc12

fluorescence lifetime (in ClCCl): 8.7 ns
SMILES: N#CC1=c2c3cccc4cccc(c43)n2[B-](F)(F)[n+]2ccccc21

fluorescence lifetime (in C1COCCO1): 1.09 ns
fluorescence lifetime (in CC#N): 2.03 ns
fluorescence lifetime (in CCCCCC): 0.37 ns
fluorescence lifetime (in CCCCCCC): 0.38 ns
fluorescence lifetime (in CCCO): 0.95 ns
fluorescence lifetime (in CCOC(C)=O): 1 ns
fluorescence lifetime (in CS(C)=O): 2.51 ns
fluorescence lifetime (in ClC(Cl)Cl): 0.89 ns
fluorescence lifetime (in ClCCl): 1.25 ns
SMILES: COc1ccc(C#Cc2ccc(C#N)cc2)cc1OC

fluorescence lifetime (in ClCCl): 4.32 ns
SMILES: COc1cc(OC)cc(C2=[O+][B-](F)(F)OC(c3ccc4cc(OC)ccc4c3)=C2)c1

fluorescence lifetime (in C1CCOC1): 1.7 ns
SMILES: CCC1(CC)c2ccccc2-c2c1c1c(c3c2C(CC)(CC)c2cc(-c4cccs4)ccc2-3)C(CC)(CC)c2cc(N(c3ccccc3)c3ccccc3)ccc2-1

fluorescence lifetime (in C1CCCCC1): 2.07 ns
fluorescence lifetime (in CCOC(C)=O): 0.52 ns
SMILES: CC1=[N+]2C(=C(NC(C)c3ccccc3)c3ccc(C)n3[B-]2(F)F)C=C1c1cc2n(c1)[B-](F)(F)[N+]1=CC=CC1=C2c1c(C)cc(C)cc1C (stereo not given)

fluorescence lifetime (in ClCCl): 1 ns
SMILES: O=Cc1ccc2c(c1)c1ccccc1n2-c1ccc(-c2ccc(-n3c4ccccc4c4cc(C=O)ccc43)cc2)cc1

fluorescence lifetime (in CC#N): 0.63 ns
fluorescence lifetime (in CO): 0.81 ns
SMILES: CN1c2ccccc2CCc2ccccc21

fluorescence lifetime (in C1CCOC1): 0.33 ns
fluorescence lifetime (in CC#N): 0.41 ns
fluorescence lifetime (in CCO): 0.28 ns
fluorescence lifetime (in CN(C)C=O): 0.19 ns
fluorescence lifetime (in CO): 0.22 ns
fluorescence lifetime (in CS(C)=O): 0.13 ns
SMILES: CSc1sc(C(=O)c2ccccc2)c2nn[nH]c(=O)c12

fluorescence lifetime (in CC#N): 1.88 ns
SMILES: Fc1ccc(/C=C/c2nc3c4ccccc4c4ccccc4c3o2)cc1

fluorescence lifetime (in ClCCl): 2.15 ns
SMILES: F[B-]1(F)Oc2ccccc2-c2c3c(c4c([n+]21)CCc1ccccc1-4)CCc1ccccc1-3

— the Deep4Chem optical property database
